Results as given in patent US20130324555A1, “Method of use of pharmaceutical formulations for the treatment of apicomplexan diseases in animals” (priority 2012, published 2013).
Converted amounts (≈) assume the structure as drawn.

Key:
T. gondii tachyzoites = assay: In vitro inhibition of T. gondii tachyzoites (RH-YFP fluorescence / [3H]-uracil incorporation); format: cell-based; conditions: for MIC50 / MIC90: Toxoplasma gondii, T. gondii tachyzoites in HFF cells; for activity against T. gondii tachyzoites, in words: only MIC50≦1 μM considered active
Description: Determination of the anti-apicomplexan activity of Compounds of Formula I may be determined by one skilled in the art. Parasite proliferation was monitored by using stably transfected type I RH-YFP parasites, which constitutively express Yellow Florescent Protein. Proliferation also was tested using a [^3H]-Uracil incorporation assay, as Uracil is incorporated into nucleic acids of T. gondii tachyzoites, but not mammalian cells, as they divide. Complimentary challenge assays ensured that the observed fluorescence data was due to parasite inhibition and not to quenched fluorescence. Pyrimethamine and sulfadiazine were used as positive controls, and DMSO at a concentration of 0.1% was used as the negative control. Because T. gondii is an obligate parasite, compounds that are toxic to host cells will appear to inhibit parasite growth. Therefore, all test compounds were simultaneously evaluated for efficacy and toxicity against human cells.
Test compounds were dissolved in DMSO to make a 10 mM solution, and subsequently diluted with IMDM-C to the concentrations used in bioassay. In the in vitro experiments DMSO concentration was not greater than 0.1% unless otherwise specified. RH-YFP parasites, which stably express Yellow Florescent Protein, were used. Tachyzoites were extracted from HFF cells by double passage through a 25-gauge needle, centrifuged for 15 minutes at 1500 RPM, and resuspended in IMDM-C. Confluent monolayers of HFF cells were infected with parasites in 96-well plates (Falcon 96 Optilux Flat-bottom) with 3,500 parasites in 100 uL per well. One hour after inoculation, test compounds and control media were added for a final volume of 200 uL per well. Parasite proliferation was assessed using [^3H]-Uracil incorporation or YFP Fluorescence assay.
Human Foreskin Fibroblast (HFF) cells were maintained in confluent monolayers in Iscoves's Modified Dulbecco's Medium supplemented with 10% fetal bovine serum, 1% GlutaMAX and 1% penicillin-streptomycin-fungizone (IMDM-C). T. gondii tachyzoites were cultivated in HFF monolayers. Parasites and cells were maintained at 33° C. or 37° C. and 5% CO2. The strains of parasite used in this study include RH, RH-YFP, and Prugnaud FLUC (Type 2 parasites stably transfected with luciferase), Me49 strain, and TgGoatUS4 isolate.
25 μL of 0.1 mCi/mL*^3H]-Uracil or [^3H]-Thymidine was added to each well 24 hours before reading plates. At harvesting, contents of the wells were transferred onto a 96-well UniFilter GF/C filter plates using a Filtermate 196 cell harvester (Packard). [^3H]-Uracil and [^3H]-Thymidine incorporation was measured using a Microplate Scintillation Luminescence Counter (Packard).
72 hours after initiation of the in vitro challenge assay, parasite proliferation was assessed by reading fluorescence of YFP parasites with a Synergy H4 Hybrid Reader (BioTek) and Gen5 1.10 software, using a bottom optics positions, excitation wavelength of 514 nm, and emission wavelength of 540 nm.

[1] = tested on: P. falciparum D6 (CDC/Sierra Leone); assay: Malaria SYBR Green 1-Based Fluorescence (MSF) Assay, strain D6; format: cell-based; conditions: Plasmodium falciparum, D6, read-out: D6 IC50
Description: Compound activity against P. falciparum, the causative agent of malaria, was assessed using the Malaria SYBR Green 1-Based Fluorescence (MSF) Assay. This microtiter plate drug sensitivity assay uses the presence of malarial DNA as a measure of parasitic proliferation. The assay is a microtiter plate drug sensitivity assay that uses the presence of malarial DNA as a measure of parasitic proliferation in the presence of antimalarial drugs or experimental compounds based on modifications of previously described methods (Plouffe et al., Proc Natl Acad Sci USA. 2008, 105, 9059-9064), (Johnson et al., Antimicrob. Agents Chemother. 2005, 49, 3463-3467).
Selected compounds were examined for activity against two strains of P. falciparum: D6 (CDC/Sierra Leone), a drug-sensitive and readily killed by chloroquine, and TM90-C235, a multi-drug resistant strain resistant to chloroquine.
D6 (CDC/Sierra Leone) and TM90-C235 (WRAIR, Thailand) laboratory strains of P. falciparum were used for each drug sensitivity assessment. The parasite strains were maintained continuously in long-term cultures as previously described in Johnson et al, and P. falciparum strains in late-ring or early-trophozoite stages were cultured in predosed 384-well microtiter drug assay plates in 38 μl culture volume per well at a starting parasitemia of 0.3% and a hematocrit of 2%. Pre-dosed, sterile, 384 well black optical bottom microtiter drug plates for use in the MSF assay were produced using a Tecan EVO Freedom Liquid Handling System (Tecan US, Durham, N.C.). Dose response plates were produced at a final concentration ranging from 0.5-10000 ng/ml in quadruplicate (twelve two-fold serial dilutions of each test compound or chloroquine control in DMSO. Each run was validated by a batch control plate with chloroquine (Sigma-Aldrich Co., Catalog #C6628) at a final concentration of 2000 ng/ml. The cultures were incubated for 72 hours at 37° C., 5% CO2, 5% O2 and 90% N2. Lysis buffer (38 μl per well), consisting of 20 mM Tris HCl, 5 mM EDTA, 1.6% Triton X, 0.016% saponin, and SYBR green I dye at a 20× concentration (Invitrogen, Catalog #S-7567) was then added to the assay plates utilizing the Tecan EVO Freedom system for a final SYBR Green concentration of 10×. Plates were incubated in the dark at room temperature in the dark for 24 hours.
Compound activity was assessed by examining for the relative fluorescence units (RFU) per well using the Tecan Genios Plus (Tecan US, Inc., Durham, N.C.). GraphPad Prism (GraphPad Software Inc., San Diego, Calif.) using the nonlinear regression (sigmoidal dose-response/variable slope) equation was used to determine IC50 values.

[2] = Hydrolytic stability of acylated derivatives (data not shown); format: physicochemical
Description: A cursory study of the effect of capping the phenol of 4 via acylation was undertaken. The acylated derivatives 7 were prepared and tested. […] The intrinsic activity of intact 7a cannot yet be ruled out, and this interesting phenomenon is currently under study.

For C#Cc1cccc(NC(=O)c2cc(Cl)ccc2O)c1 [Compound 3d], the MIC50 (T. gondii tachyzoites) was > 1 µM and the MIC90 (T. gondii tachyzoites) was > 1 µM.
For COc1cccc(NC(=O)c2cc(F)ccc2O)c1 [Compound 10b], the MIC50 (T. gondii tachyzoites) was > 1 µM, the MIC90 (T. gondii tachyzoites) was > 1 µM and the “activity against T. gondii tachyzoites, in words” value (from here on “activity”) (T. gondii tachyzoites) was “inactive”.
With O=C(Nc1cccc(Cl)c1)c1cc(I)cc(I)c1O [Compound 3aa] the MIC50 (T. gondii tachyzoites) was > 1 µM, the MIC90 (T. gondii tachyzoites) was > 1 µM and the “activity” value (T. gondii tachyzoites) was “no activity”.
In the case of O=C(Nc1cccc(Oc2ccccc2)c1)c1cc(Cl)ccc1O [Compound 3y], the MIC50 (T. gondii tachyzoites) is reported as > 1 µM and the MIC90 (T. gondii tachyzoites) is reported as > 1 µM.
With CCOc1cccc(NC(=O)c2cc(F)ccc2O)c1 [Compound 3ac] the MIC50 (T. gondii tachyzoites) was > 1 µM, the MIC90 (T. gondii tachyzoites) was > 1 µM and the “activity” value (T. gondii tachyzoites) was “no activity”.
With COc1ccc(NC(=O)c2cc(Cl)ccc2O)cc1OC [Compound 3v] the MIC50 (T. gondii tachyzoites) was > 1 µM, the MIC90 (T. gondii tachyzoites) was > 1 µM and the “activity” value (T. gondii tachyzoites) was “devoid of activity”.
With Nc1ccc(NC(=O)c2cc(Cl)ccc2O)c(Cl)c1 [Compound 5] the MIC50 (T. gondii tachyzoites) was > 1 µM, the MIC90 (T. gondii tachyzoites) was > 1 µM and the “activity” value (T. gondii tachyzoites) was “all activity was lost”.
In the case of Cc1cccc(NC(=O)c2cc(Cl)ccc2O)c1 [Compound 3a], the MIC50 (T. gondii tachyzoites) is reported as > 1 µM and the MIC90 (T. gondii tachyzoites) is reported as > 1 µM.
For O=C(Nc1cc(F)cc(F)c1)c1cc(Cl)ccc1O [Compound 3o], the MIC50 (T. gondii tachyzoites) was > 1 µM, the MIC90 (T. gondii tachyzoites) was > 1 µM and the “activity” value (T. gondii tachyzoites) was “inactive”.
In the case of CC(C)Oc1cccc(NC(=O)c2cc(Cl)ccc2O)c1 [Compound 3w], the MIC50 (T. gondii tachyzoites) is reported as > 1 µM and the MIC90 (T. gondii tachyzoites) is reported as > 1 µM.
Compound CCN(CC)CCCC(C)Nc1ccnc2cc(Cl)ccc12 (stereo not drawn) [Chloroquine, reference compound] has an IC50 [1] of 3.8 ng/mL (≈ 0.0119 µM).
In the case of O=C(Nc1ccc(Cl)cc1F)c1cc(Cl)ccc1O [Compound 3p, 5-chloro-N-(4-chloro-2-fluorophenyl)-2-hydroxybenzamide], the “activity” value (T. gondii tachyzoites) is reported as “removed all activity”.
In the case of Cc1cccc(NC(=O)c2cc(F)ccc2O)c1 [Compound 10a], the MIC50 (T. gondii tachyzoites) is reported as > 1 µM, the MIC90 (T. gondii tachyzoites) is reported as > 1 µM and the “activity” value (T. gondii tachyzoites) is reported as “inactive”.
In the case of O=C(Nc1ccc([N+](=O)[O-])cc1Cl)c1ccccc1O [Compound 3k], the MIC50 (T. gondii tachyzoites) is reported as > 1 µM, the MIC90 (T. gondii tachyzoites) is reported as > 1 µM and the “activity” value (T. gondii tachyzoites) is reported as “eliminated activity altogether”.
In the case of O=C(Nc1ccc([N+](=O)[O-])cc1Cl)c1cc(Cl)ccc1OC(=O)N1CCOCC1 [Compound 7c], the MIC50 (T. gondii tachyzoites) is reported as > 1 µM, the MIC90 (T. gondii tachyzoites) is reported as > 1 µM and the “activity” value (T. gondii tachyzoites) is reported as “devoid of activity”. The stability against hydrolysis [2] was “much more stable against hydrolysis”.
For N#Cc1cccc(NC(=O)c2cc(Cl)ccc2O)c1 [Compound 3g], the MIC50 (T. gondii tachyzoites) was > 1 µM and the MIC90 (T. gondii tachyzoites) was > 1 µM.
With O=C(Nc1cccc(OC(F)F)c1)c1cc(Cl)ccc1O [Compound 3z] the MIC50 (T. gondii tachyzoites) was > 1 µM and the MIC90 (T. gondii tachyzoites) was > 1 µM.
For COc1cc(C)cc(NC(=O)c2cc(Cl)ccc2O)c1 [Compound 3x], the MIC50 (T. gondii tachyzoites) was > 1 µM and the MIC90 (T. gondii tachyzoites) was > 1 µM.
For Cc1cc(C)cc(NC(=O)c2cc(Cl)ccc2O)c1 [Compound 3s], the MIC50 (T. gondii tachyzoites) was > 1 µM and the MIC90 (T. gondii tachyzoites) was > 1 µM.
With COC(=O)[C@@H]1CCCC1C(=O)Oc1ccc(Cl)cc1C(=O)Nc1ccc([N+](=O)[O-])cc1Cl (stereo partly drawn) [Compound 7b] the MIC50 (T. gondii tachyzoites) was > 1 µM, the MIC90 (T. gondii tachyzoites) was > 1 µM and the “activity” value (T. gondii tachyzoites) was “devoid of activity”. The stability against hydrolysis [2] was “much more stable against hydrolysis”.
With C#Cc1cc(NC(=O)c2cc(Cl)ccc2O)ccc1F [Compound 3t] the MIC50 (T. gondii tachyzoites) was > 1 µM, the MIC90 (T. gondii tachyzoites) was > 1 µM and the “activity” value (T. gondii tachyzoites) was “inactive”.
With CN1CCN(C(=O)Oc2ccc(Cl)cc2C(=O)Nc2ccc([N+](=O)[O-])cc2Cl)CC1 [Compound 7d, 4-chloro-2-((2-chloro-4-nitrophenyl)carbamoyl)phenyl 4-methylpiperazine-1-carboxylate] the “activity” value (T. gondii tachyzoites) was “devoid of activity” and the stability against hydrolysis [2] was “much more stable against hydrolysis”.
In the case of CCOc1cccc(NC(=O)c2cc(Cl)ccc2O)c1 [Compound 3u], the MIC50 (T. gondii tachyzoites) is reported as > 1 µM and the MIC90 (T. gondii tachyzoites) is reported as > 1 µM.
In the case of O=C(Nc1ccc2c(c1)OCCO2)c1cc(Cl)ccc1O [Compound 3ab], the MIC50 (T. gondii tachyzoites) is reported as > 1 µM, the MIC90 (T. gondii tachyzoites) is reported as > 1 µM and the “activity” value (T. gondii tachyzoites) is reported as “devoid of activity”.
With COc1ccc(NC(=O)c2cc(Cl)ccc2O)c(OC)c1OC [Compound 3q] the MIC50 (T. gondii tachyzoites) was > 1 µM, the MIC90 (T. gondii tachyzoites) was > 1 µM and the “activity” value (T. gondii tachyzoites) was “devoid of activity”.
